Patent US20240245753A1, “METHODS OF REDUCING SIDE EFFECTS OF ANTI-CD30 ANTIBODY DRUG CONJUGATE THERAPY” (priority 2017, published 2024)
Where two headings read alike, the source gives them in different places.

B1: G-CSF (protein, UniProt P09919 31-207, looked up)
Granulocyte …: TPLGPASSLPQSFLLKCLEQVRKIQGDGAALQEKLVSECATYKLCHPEELVLLGHSLGIPWAPLSSCPSQALQLAGCLSQLHSGLFLYQGLLQALEGISPELGPTLDTLQLDVADFATTIWQQMEELGMAPALQPTQGAMPAFASAFQRRAGGVLVASHLQSFLEVSYRVLRHLAQP

Columns and labels:
[1] = test system: relapsed or refractory sALCL; conditions: cited from earlier work
[2] = test system: newly diagnosed CD30-positive mature T- and NK-cell neoplasms, including sALCL; conditions: given concomitantly with CHP; cited from earlier work
[3] = Randomized, double-blind Phase 3 clinical trial of A+CHP versus CHOP: safety (adverse events, exposure); conditions: human, in vivo
From the text: TRIAL DESIGN: Approximately 450 patients (approximately 225 patients per treatment arm) are randomized in this study. The standard of care in this patient population consists of 6-8 cycles of CHOP chemotherapy. Patients are randomized in a 1:1 manner to receive 21-day cycles of treatment in 1 of the following 2 treatment groups: Standard-of-care arm: 6-8 cycles of CHOP; or Experimental arm: 6-8 cycles of brentuximab vedotin plus CHP (A+CHP). A target of 8 cycles of study treatment are administered, per investigator decision, based on patient-specific characteristics, including stage of disease and IPI risk score.
Safety is evaluated by the incidence of adverse events, using the Medical Dictionary for Regulatory Activities (MedDRA; v19.0), and National Cancer Institute Common Terminology Criteria for Adverse Events v4.03, and by changes in vital signs, and clinical laboratory results.
All efficacy evaluations are conducted using the intent-to-treat population unless otherwise specified. Safety is analyzed in patients who received at least one dose of study drug (safety population).
Subjects were randomly assigned in a 1:1 ratio to receive 21-day cycles of either A+CHP or CHOP for 6 or 8 cycles, with the number of cycles determined at the outset and based on investigator discretion. […]

Molecule	median duration of response ([1]; 1.8 mg/kg every 3 weeks) [months]	objective response (CR+PR) rate ([1]; 1.8 mg/kg every 3 weeks) [%]	patients achieving a CR ([1]; 1.8 mg/kg every 3 weeks) [%]	tolerability ([1]; manageable side effects)	median duration of response ([1]; subset of patients who achieved a CR) [months]	maximum tolerated dose [2] [mg/kg]	effect of primary prophylactic G-CSF on febrile neutropenia [3]
brentuximab vedotin	12.6	86	57	generally well tolerated	13.2	1.8	–
B1	–	–	–	–	–	–	reduced the incidence and severity
